# According to the supplement of paper PMC10307832:
# Legend:
# Experiment in all cases: relative viability (nuclei count vs DMSO), 5 days (fraction); higher = more cells survive
# NCI-H460 = test system: NCI-H460
# Procedure, shortened: (§1)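 Medians of duplicate plates are given as relative viability. That measure is the nuclei count in treated wells divided by the count in vehicle wells. Counts were taken on 4× images of lung cancer cell lines in 1536-well plates, 5 days after pin-tool dosing the day after seeding with one drug alone or a fixed anchor-drug dose plus five library-drug doses (not always all listed) in √10 steps.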
# A-427 = test system: A-427
# Procedure, shortened: as §1
# COR-L23 = test system: COR-L23
# Procedure, shortened: as §1
# NCI-H1650 = test system: NCI-H1650
# Procedure, shortened: as §1
# NCI-H727 = test system: NCI-H727
# Procedure, shortened: as §1
# H3255 = test system: H3255
# Procedure, shortened: as §1
# NCI-H1793 = test system: NCI-H1793
# Procedure, shortened: as §1
# 201T = test system: 201T
# Procedure, shortened: as §1
# LU99A = test system: LU99A
# Procedure, shortened: as §1
# LC-2-ad = test system: LC-2-ad
# Procedure, shortened: as §1
# LCLC-97TM1 = test system: LCLC-97TM1
# Procedure, shortened: as §1
smiles,measurement,setting,value
O=c1cc(-c2cccc3c2Sc2ccccc2S3)oc(N2CCOCC2)c1 + O=C(c1cc(Cc2n[nH]c(=O)c3ccccc23)ccc1F)N1CCN(C(=O)C2CC2)CC1 [Olaparib] (partner 8 µM),relative viability,NCI-H460; first compound 0.08 µM,0.513
same,relative viability,NCI-H460; first compound 0.253 µM,0.343
same,relative viability,NCI-H460; first compound 0.8 µM,0.454
same,relative viability,NCI-H460; first compound 2.53 µM,0.451
same,relative viability,NCI-H460; first compound 8 µM,0.542
same,relative viability,A-427; first compound 0.08 µM,0.7
same,relative viability,A-427; first compound 0.253 µM,0.776
same,relative viability,A-427; first compound 0.8 µM,0.637
same,relative viability,A-427; first compound 2.53 µM,0.684
same,relative viability,A-427; first compound 8 µM,0.777
same,relative viability,COR-L23; first compound 0.08 µM,0.35
same,relative viability,COR-L23; first compound 0.253 µM,0.395
same,relative viability,COR-L23; first compound 0.8 µM,0.351
same,relative viability,COR-L23; first compound 2.53 µM,0.362
same,relative viability,COR-L23; first compound 8 µM,0.351
same,relative viability,NCI-H1650; first compound 0.08 µM,0.702
same,relative viability,NCI-H1650; first compound 0.253 µM,0.8
same,relative viability,NCI-H1650; first compound 0.8 µM,0.53
same,relative viability,NCI-H1650; first compound 2.53 µM,0.782
same,relative viability,NCI-H1650; first compound 8 µM,0.734
same,relative viability,NCI-H727; first compound 0.08 µM,0.64
same,relative viability,NCI-H727; first compound 0.253 µM,0.679
same,relative viability,NCI-H727; first compound 2.53 µM,0.615
same,relative viability,NCI-H727; first compound 8 µM,0.68
same,relative viability,H3255; first compound 0.08 µM,0.592
same,relative viability,H3255; first compound 0.253 µM,0.586
same,relative viability,H3255; first compound 0.8 µM,0.571
same,relative viability,H3255; first compound 2.53 µM,0.525
same,relative viability,H3255; first compound 8 µM,0.594
same,relative viability,NCI-H1793; first compound 0.08 µM,0.815
same,relative viability,NCI-H1793; first compound 0.253 µM,1.08
same,relative viability,NCI-H1793; first compound 0.8 µM,0.899
same,relative viability,NCI-H1793; first compound 2.53 µM,0.721
same,relative viability,NCI-H1793; first compound 8 µM,0.63
same,relative viability,201T; first compound 0.08 µM,0.688
same,relative viability,201T; first compound 0.253 µM,0.909
same,relative viability,201T; first compound 0.8 µM,0.861
same,relative viability,201T; first compound 2.53 µM,0.84
same,relative viability,201T; first compound 8 µM,0.703
same,relative viability,LU99A; first compound 0.08 µM,0.251
same,relative viability,LU99A; first compound 0.253 µM,0.298
same,relative viability,LU99A; first compound 0.8 µM,0.296
same,relative viability,LU99A; first compound 2.53 µM,0.245
same,relative viability,LU99A; first compound 8 µM,0.214
same,relative viability,LC-2-ad; first compound 0.08 µM,0.791
same,relative viability,LC-2-ad; first compound 0.253 µM,0.83
same,relative viability,LC-2-ad; first compound 0.8 µM,0.713
same,relative viability,LC-2-ad; first compound 2.53 µM,0.649
same,relative viability,LC-2-ad; first compound 8 µM,0.64
same,relative viability,LCLC-97TM1; first compound 0.08 µM,0.404
same,relative viability,LCLC-97TM1; first compound 0.253 µM,0.555
same,relative viability,LCLC-97TM1; first compound 0.8 µM,0.463
same,relative viability,LCLC-97TM1; first compound 2.53 µM,0.31
same,relative viability,LCLC-97TM1; first compound 8 µM,0.378
